In US5061711A, “Method of curing liver diseases by using pyrrolo quinoline quinone triesters and novel pyrrolo quinoline quinone triesters” (Mitsubishi Gas Chemical Company, Inc., priority 1989, dated 1991):

Assays:
mice = experiment: Kidney toxicity determined by urine test; type: in vivo, mouse; settings: for glucose in urine (in words): i.p., all doses
Procedure: (2) Kidney toxicity determined by urine test
PQQ.2Na, PQQ trimethyl ester and PQQ triallyl ester were intraperitoneally administered to mice and they were bred in the same manner as in the above acute toxicity test. The doses per kg of body weight of mouse were 20, 40 and 80 mg for PQQ.2Na and 20, 40, 80, 160 and 200 mg for PQQ triesters. Urine was collected every day and glucose concentration was examined using clinical examination reagent (trademark: […] II manufactured by Miles.Sankyo Co.).

[1] = test system: carbon tetrachloride (CCl4)-induced liver diseases; experiment: Pharmacological activity (2) on carbon tetrachloride (CCl4)-induced liver diseases; type: in vivo, SD rats; settings: CCl4 1 ml/kg rat i.p., 24 hours, average of five rats; for Total bilirubin in serum: CCl4 alone 0.9; for GPT in serum: CCl4 alone 949; for GOT in serum: CCl4 alone 1970
Procedure: Pharmacological activity (2) of PQQ triesters on carbon tetrachloride (CCl4)-induced liver diseases:
Forty SD rats (male, 7 weeks old, body weight: about 260 g; supplied by Japan Charles River Co.) were divided to eight groups (A-H) each consisting of five rats. All rats were fasted for 18 hours and 1.3 ml of a solution containing 2 mg/ml of PQQ trimethyl ester was intraperitoneally administered to the rats of group C, 1.3 ml of a solution containing 10 mg/ml of PQQ trimethyl ester was intraperitoneally administered to the rats of group D, 1.3 ml of a solution containing 20 mg/ml of PQQ trimethyl ester was intraperitoneally administered to the rats of group E, 1.3 ml of a solution containing 2 mg/ml of PQQ triallyl ester was intraperitoneally administered to the rats of group F, 1.3 ml of a solution containing […] was intraperitoneally administered to the rats of group G, and 1.3 ml of a solution containing 20 mg/ml of PQQ triallyl ester was intraperitoneally administered to the rats of group H and furthermore, after lapse of 50 minutes, the same PQQ triesters in the same doses as above were intraperitoneally administered to respective rats. In these cases, the PQQ triesters were suspended in physiological saline containing 1% Tween 80 and administered to the rats. 1.3 ml of physiological saline was intraperitoneally administered to the rats of group B in place of PQQ triesters. […] Neither PQQ triesters nor carbon tetrachloride were administered to the rats of group A.
(§1) After 24 hours from administration of carbon tetrachloride, blood was collected from abdominal main artery and serum was obtained by centrifugation therefrom.
GPT, […] and amount of total bilirubin in the serum were measured by clinical examination reagent (trademark: FUJI DRYCHEMSLIDE manufactured by Fuji Photo Film Co., Ltd.). The results are shown in Table 6 by average value of five rats.

[2] = test system: carbon tetrachloride (CCl4)-induced liver diseases; experiment: Pharmacological activity (1) on carbon tetrachloride (CCl4)-induced liver diseases; type: in vivo, SD rats; settings: i.p. 5 mg/kg rat twice, CCl4 1 ml/kg rat, 24 hours, average of five rats; for Total bilirubin in serum: CCl4 alone 1.2; for GPT in serum: CCl4 alone 818; for GOT in serum: CCl4 alone 3308
Procedure: Pharmacological activity (1) of PQQ triesters on carbon tetrachloride (CCl4)-induced liver diseases:
Twenty SD rats (male, 7 weeks old, body weight: about 220 g; supplied by Japan Charles River Co.) were divided to four groups (A-D) each consisting of five rats. All rats were fasted for 16 hours and 1.1 ml of a solution containing 1 mg/ml of PQQ trimethyl ester was intraperitoneally administered to the rats of group C and 1.1 ml of a solution containing 1 mg/ml of PQQ triallyl ester was intraperitoneally administered to the rats of group D and after lapse of 40 minutes, the same PQQ triesters in the same dose as above was intraperitoneally administered, respectively. For administration, the PQQ triesters were suspended in physiological saline containing 1 % Tween 80, 1.1 ml of physiological saline was intraperitoneally administered to the rats of group B in place of PQQ triesters. Furthermore, after 20 minutes, 2.2 ml of 10 vol% carbon tetrachloride (solution in olive oil) was administered to stomach of the rats of groups B-D. Neither PQQ triesters nor carbon tetrachloride were administered to the rats of group A.
as §1
GPT, GOT and amount of total bilirubin in the serum were measured by clinical examination reagent (trademark: FUJI DRYCHEMSLIDE manufactured by Fuji Photo Film Co., Ltd.). The results are shown in Table 5 by average value of five rats.

male mice SPF-ICR = experiment: Acute toxicity test; settings: mouse, in vivo
Procedure: To male mice SPF-ICR five weeks old (supplied by Japan Charles River Co.) were intraperitoneally administered PQQ.2Na, PQQ trimethyl ester and PQQ triallyl ester at dosages of 40, 80, 160 and 200 mg per kg of body weight of mouse, respectively and they were bred for 14 days at 25° C. One group consisted of 8 mice. For administration, PQQ.2Na was dissolved in physiological saline and PQQ trimethyl ester and PQQ triallyl ester were suspended in 1%Tween 80-containing physiological saline, respectively.

COC(=O)c1cc(C(=O)OC)c2c(n1)C(=O)C(=O)c1cc(C(=O)OC)[nH]c1-2 [PQQ trimethyl ester]
glucose in urine (mice; i.p. 20 mg/kg, day 1): - | glucose in urine (mice; i.p. 20 mg/kg, day 2): - | glucose in urine (mice; i.p. 20 mg/kg, day 3): - | glucose in urine (mice; i.p. 20 mg/kg, day 6): - | glucose in urine (mice; i.p. 20 mg/kg, day 7): - | glucose in urine (mice; i.p. 20 mg/kg, day 8): - | glucose in urine (mice; i.p. 20 mg/kg, day 10): - | glucose in urine (mice; i.p. 20 mg/kg, day 13): - | glucose in urine (mice; i.p. 20 mg/kg, day 14): - | glucose in urine (mice; i.p. 40 mg/kg, day 1): - | glucose in urine (mice; i.p. 40 mg/kg, day 2): - | glucose in urine (mice; i.p. 40 mg/kg, day 3): - | glucose in urine (mice; i.p. 40 mg/kg, day 6): - | glucose in urine (mice; i.p. 40 mg/kg, day 7): - | glucose in urine (mice; i.p. 40 mg/kg, day 8): - | glucose in urine (mice; i.p. 40 mg/kg, day 10): - | glucose in urine (mice; i.p. 40 mg/kg, day 13): - | glucose in urine (mice; i.p. 40 mg/kg, day 14): - | glucose in urine (mice; i.p. 80 mg/kg, day 1): - | glucose in urine (mice; i.p. 80 mg/kg, day 2): - | glucose in urine (mice; i.p. 80 mg/kg, day 3): - | glucose in urine (mice; i.p. 80 mg/kg, day 6): - | glucose in urine (mice; i.p. 80 mg/kg, day 7): - | glucose in urine (mice; i.p. 80 mg/kg, day 8): - | glucose in urine (mice; i.p. 80 mg/kg, day 10): - | glucose in urine (mice; i.p. 80 mg/kg, day 13): - | glucose in urine (mice; i.p. 80 mg/kg, day 14): - | glucose in urine (mice; i.p. 160 mg/kg, day 1): - | glucose in urine (mice; i.p. 160 mg/kg, day 2): - | glucose in urine (mice; i.p. 160 mg/kg, day 3): - | glucose in urine (mice; i.p. 160 mg/kg, day 6): - | glucose in urine (mice; i.p. 160 mg/kg, day 7): - | glucose in urine (mice; i.p. 160 mg/kg, day 8): - | glucose in urine (mice; i.p. 160 mg/kg, day 10): - | glucose in urine (mice; i.p. 160 mg/kg, day 13): - | glucose in urine (mice; i.p. 160 mg/kg, day 14): - | glucose in urine (mice; i.p. 200 mg/kg, day 1): - | glucose in urine (mice; i.p. 200 mg/kg, day 2): - | glucose in urine (mice; i.p. 200 mg/kg, day 3): - | glucose in urine (mice; i.p. 200 mg/kg, day 6): - | glucose in urine (mice; i.p. 200 mg/kg, day 7): - | glucose in urine (mice; i.p. 200 mg/kg, day 8): - | glucose in urine (mice; i.p. 200 mg/kg, day 10): - | glucose in urine (mice; i.p. 200 mg/kg, day 13): - | glucose in urine (mice; i.p. 200 mg/kg, day 14): - | glucose in urine (in words) (mice): no glucose was detected | Total bilirubin in serum ([1]; i.p. 10 mg/kg rat twice): 0.9 mg/dL | GPT in serum ([1]; i.p. 10 mg/kg rat twice): 479 U/l | GOT in serum ([1]; i.p. 10 mg/kg rat twice): 1263 U/l | Total bilirubin in serum ([1]; i.p. 50 mg/kg rat twice): 0.7 mg/dL | GPT in serum ([1]; i.p. 50 mg/kg rat twice): 645 U/l | GOT in serum ([1]; i.p. 50 mg/kg rat twice): 1543 U/l | Total bilirubin in serum ([1]; i.p. 100 mg/kg rat twice): 0.8 mg/dL | GPT in serum ([1]; i.p. 100 mg/kg rat twice): 676 U/l | GOT in serum ([1]; i.p. 100 mg/kg rat twice): 1605 U/l | Total bilirubin in serum [2]: 0.7 mg/dL | GPT in serum [2]: 505 U/l | GOT in serum [2]: 2193 U/l | mice died (male mice SPF-ICR): no mice died

C=CCOC(=O)c1cc(C(=O)OCC=C)c2c(n1)C(=O)C(=O)c1cc(C(=O)OCC=C)[nH]c1-2 [PQQ triallyl ester]
glucose in urine (mice; i.p. 20 mg/kg, day 1): - | glucose in urine (mice; i.p. 20 mg/kg, day 2): - | glucose in urine (mice; i.p. 20 mg/kg, day 3): - | glucose in urine (mice; i.p. 20 mg/kg, day 6): - | glucose in urine (mice; i.p. 20 mg/kg, day 7): - | glucose in urine (mice; i.p. 20 mg/kg, day 8): - | glucose in urine (mice; i.p. 20 mg/kg, day 10): - | glucose in urine (mice; i.p. 20 mg/kg, day 13): - | glucose in urine (mice; i.p. 20 mg/kg, day 14): - | glucose in urine (mice; i.p. 40 mg/kg, day 1): - | glucose in urine (mice; i.p. 40 mg/kg, day 2): - | glucose in urine (mice; i.p. 40 mg/kg, day 3): - | glucose in urine (mice; i.p. 40 mg/kg, day 6): - | glucose in urine (mice; i.p. 40 mg/kg, day 7): - | glucose in urine (mice; i.p. 40 mg/kg, day 8): - | glucose in urine (mice; i.p. 40 mg/kg, day 10): - | glucose in urine (mice; i.p. 40 mg/kg, day 13): - | glucose in urine (mice; i.p. 40 mg/kg, day 14): - | glucose in urine (mice; i.p. 80 mg/kg, day 1): - | glucose in urine (mice; i.p. 80 mg/kg, day 2): - | glucose in urine (mice; i.p. 80 mg/kg, day 3): - | glucose in urine (mice; i.p. 80 mg/kg, day 6): - | glucose in urine (mice; i.p. 80 mg/kg, day 7): - | glucose in urine (mice; i.p. 80 mg/kg, day 8): - | glucose in urine (mice; i.p. 80 mg/kg, day 10): - | glucose in urine (mice; i.p. 80 mg/kg, day 13): - | glucose in urine (mice; i.p. 80 mg/kg, day 14): - | glucose in urine (mice; i.p. 160 mg/kg, day 1): - | glucose in urine (mice; i.p. 160 mg/kg, day 2): - | glucose in urine (mice; i.p. 160 mg/kg, day 3): - | glucose in urine (mice; i.p. 160 mg/kg, day 6): - | glucose in urine (mice; i.p. 160 mg/kg, day 7): - | glucose in urine (mice; i.p. 160 mg/kg, day 8): - | glucose in urine (mice; i.p. 160 mg/kg, day 10): - | glucose in urine (mice; i.p. 160 mg/kg, day 13): - | glucose in urine (mice; i.p. 160 mg/kg, day 14): - | glucose in urine (mice; i.p. 200 mg/kg, day 1): - | glucose in urine (mice; i.p. 200 mg/kg, day 2): - | glucose in urine (mice; i.p. 200 mg/kg, day 3): - | glucose in urine (mice; i.p. 200 mg/kg, day 6): - | glucose in urine (mice; i.p. 200 mg/kg, day 7): - | glucose in urine (mice; i.p. 200 mg/kg, day 8): - | glucose in urine (mice; i.p. 200 mg/kg, day 10): - | glucose in urine (mice; i.p. 200 mg/kg, day 13): - | glucose in urine (mice; i.p. 200 mg/kg, day 14): - | glucose in urine (in words) (mice): no glucose was detected | Total bilirubin in serum ([1]; i.p. 10 mg/kg rat twice): 0.7 mg/dL | GPT in serum ([1]; i.p. 10 mg/kg rat twice): 323 U/l | GOT in serum ([1]; i.p. 10 mg/kg rat twice): 1186 U/l | Total bilirubin in serum ([1]; i.p. 50 mg/kg rat twice): 0.7 mg/dL | GPT in serum ([1]; i.p. 50 mg/kg rat twice): 583 U/l | GOT in serum ([1]; i.p. 50 mg/kg rat twice): 1270 U/l | Total bilirubin in serum ([1]; i.p. 100 mg/kg rat twice): 0.8 mg/dL | GPT in serum ([1]; i.p. 100 mg/kg rat twice): 576 U/l | GOT in serum ([1]; i.p. 100 mg/kg rat twice): 1563 U/l | Total bilirubin in serum [2]: 0.8 mg/dL | GPT in serum [2]: 371 U/l | GOT in serum [2]: 2150 U/l | mice died (male mice SPF-ICR): no mice died
